Tested on: C57BL/6 mice
Experiment: animal or person
Type: in vivo
Settings: Mus musculus, sc, 0.5 h, s.c. administration, 30 min, 55° C. water, read-out: ED50 (mg/kg) at 30 min on C57BL/6 mice in Warm-water Tail-flick Test

| SMILES | ED50 |
| --- | --- |
| CCOCC1(CCc2ccccn2)CCN(Cc2ccc(NC(C)=O)cc2)CC1 [Compound 149, N-(4-((4-(ethoxymethyl)-4-(2-(pyridin-2-yl)ethyl)piperidin-1-yl)methyl)phenyl)acetamide] | > 10 mg/kg |
| CCOCC1(CCc2ccccc2)CCN(Cc2ccc(Br)cc2)CC1 [Compound 150, 1-(4-bromobenzyl)-4-(ethoxymethyl)-4-phenethylpiperidine] | > 10 mg/kg |
| CCOCC1(CCc2ccccc2)CCN(Cc2ccc(C#N)cc2)CC1 [Compound 151, 4-((4-(ethoxymethyl)-4-phenethylpiperidin-1-yl)methyl)benzonitrile] | > 10 mg/kg |
| CCOCC1(CCc2ccccc2)CCN(Cc2ccc(B3OC(C)(C)C(C)(C)O3)cc2)CC1 [Compound 152, 4-(ethoxymethyl)-4-phenethyl-1-(4-(4,4,5,5-tetramethyl-1,3,2-dioxaborolan-2-yl)benzyl)piperidine] | > 10 mg/kg |
| CCOCC1(CCc2ccccc2)CCN(Cc2ccc(-c3cn[nH]n3)cc2)CC1 [Compound 153, 1-(4-(2H-1,2,3-triazol-4-yl)benzyl)-4-(ethoxymethyl)-4-phenethylpiperidine] | > 10 mg/kg |
| CCOCC1(CCc2ccccc2)CCN(Cc2ccc(-c3nnn[nH]3)cc2)CC1.Cl [Compound 154, 1-(4-(1H-tetrazol-5-yl)benzyl)-4-(ethoxymethyl)-4-phenethylpiperidine HCl] | > 10 mg/kg |
| CCOCC1(CCc2ccccc2)CCN(Cc2ccc(-c3n[nH]c(=O)[nH]3)cc2)CC1 [Compound 155, 3-(4-((4-(ethoxymethyl)-4-phenethylpiperidin-1-yl)methyl)phenyl)-1H-1,2,4-triazol-5(4H)-one] | > 10 mg/kg |
| CCOCC1(CCc2ccccc2)CCN(Cc2ccc(C(C)O)cc2)CC1.Cl (stereo not shown) [Compound 156, 1-(4-((4-(ethoxymethyl)-4-phenethylpiperidin-1-yl)methyl)phenyl)ethanol HCl] | > 10 mg/kg |
| CCOCC1(CCc2ccccc2)CCN(Cc2ccc(-n3ccnn3)cc2)CC1 [Compound 157] | > 10 mg/kg |
| CCOCC1(CCc2ccccc2)CCN(Cc2ccc(-n3nccn3)cc2)CC1 [Compound 158] | > 10 mg/kg |
| CCOC(C)C1(CCc2ccccc2)CCN(Cc2ccc(NC(C)=O)cc2)CC1.Cl (stereo not shown) [Compound 159, N-(4-((4-(1-ethoxyethyl)-4-phenethylpiperidin-1-yl)methyl)phenyl)acetamide HCl] | > 10 mg/kg |
| CC(=O)Nc1ccc(CN2CCC(CCc3ccccc3)(C3CCC(C)O3)CC2)cc1 (stereo not shown) [Compound 160, N-(4-((4-(5-methyltetrahydro-furan-2-yl)-4-phenethylpiperidin-1-yl)methyl)phenyl)acetamide] | < 10 mg/kg |
| CCOCC1(CCc2ccccc2)CCN(Cc2ccc(CC(N)=O)cc2)CC1 [Compound 161, 2-(4-((4-(ethoxymethyl)-4-phenethylpiperidin-1-yl)methyl)phenyl)acetamide] | > 10 mg/kg |
| CCOCC1(CCc2ccccc2)CCN(Cc2ccc(CC(=O)NC)cc2)CC1 [Compound 162, 2-(4-((4-(ethoxymethyl)-4-phenethylpiperidin-1-yl)methyl)phenyl)-N-methylacetamide] | > 10 mg/kg |
| CCOCC1(CCc2ccccc2)CCN(Cc2ccc(CC(C)O)cc2)CC1 (stereo not shown) [Compound 163, 1-(4-((4-(ethoxymethyl)-4-phenethylpiperidin-1-yl)methyl)phenyl)propan-2-ol] | > 10 mg/kg |
| CC(=O)Nc1ccc(CN2CCC(CCc3ccccc3)(C3(C)CC=CCO3)CC2)cc1.Cl (stereo not shown) [Compound 164, N-(4-((4-(2-methyl-3,6-dihydro-2H-pyran-2-yl)-4-phenethylpiperidin-1-yl)methyl)phenyl)acetamide HCl] | > 10 mg/kg |
| CC(=O)Nc1ccc(CN2CCC(CCc3ccccc3)(C3(C)CCCCO3)CC2)cc1 (stereo not shown) [Compound 165, N-(4-((4-(2-methyltetrahydro-2H-pyran-2-yl)-4-phenethylpiperidin-1-yl)methyl)phenyl)acetamide] | < 10 mg/kg |
| CCOCC1(/C=C/c2ccccn2)CCN(Cc2ccc(NC(C)=O)cc2)CC1 [Compound 166, (E)-N-(4-((4-(ethoxymethyl)-4-(2-(pyridin-2-yl)vinyl)piperidin-1-yl)methyl)phenyl)acetamide] | > 10 mg/kg |
| CCOCC1(/C=C/c2ccsc2)CCN(Cc2ccc(NC(C)=O)cc2)CC1 [Compound 167, (E)-N-(4-((4-(ethoxymethyl)-4-(2-(thiophen-3-yl)vinyl)piperidin-1-yl)methyl)phenyl)acetamide] | > 10 mg/kg |
| CCOCC1(/C=C/c2ccc3ccccc3c2)CCN(Cc2ccc(NC(C)=O)cc2)CC1 [Compound 168, (E)-N-(4-((4-(ethoxymethyl)-4-(2-(naphthalen-2-yl)vinyl)piperidin-1-yl)methyl)phenyl)acetamide] | > 10 mg/kg |
| CCOCC1(CCc2ccccc2)CCN(Cc2ccc(CNC(C)=O)cc2)CC1.Cl [Compound 169, N-(4-((4-(ethoxymethyl)-4-phenethylpiperidin-1-yl)methyl)benzyl)acetamide HCl] | > 10 mg/kg |
| CCOCC1(CCc2ccccc2OC)CCN(Cc2ccc(NC(C)=O)cc2)CC1 [Compound 170, N-(4-((4-(ethoxymethyl)-4-(2-methoxy-phenethyl)piperidin-1-yl)methyl)phenyl)acetamide] | > 10 mg/kg |

| SMILES | ED50 |
| --- | --- |
| CC(=O)Nc1ccc(CN2CCC(CCc3cccs3)(C3CCO3)CC2)cc1 (stereo not shown) [Compound 171, N-(4-((4-(oxetan-2-yl)-4-(2-(thiophen-2-yl)ethyl)piperidin-1-yl)methyl)phenyl)acetamide] | < 10 mg/kg |
| CC(=O)Nc1ccc(CN2CCC(CCc3cccs3)(C3CCCO3)CC2)cc1 (stereo not shown) [Compound 172, N-(4-((4-(tetrahydrofuran-2-yl)-4-(2-(thiophen-2-yl)ethyl)piperidin-1-yl)methyl)phenyl)acetamide] | < 10 mg/kg |
| CCOCC1(CCc2ccccc2)CCN(Cc2ccc(NC=O)s2)CC1 [Compound 173, N-(5-((4-(ethoxymethyl)-4-phenethylpiperidin-1-yl)methyl)thiophen-2-yl)formamide] | > 10 mg/kg |
| CCOCC1(CCc2ccccc2)CCN(c2ccc(CNC(C)=O)cc2)CC1 [Compound 174, N-(4-(4-(ethoxymethyl)-4-phenethylpiperidin-1-yl)benzyl)acetamide] | > 10 mg/kg |
| CC(=O)Nc1ccc(CN2CCC(CCc3ccccc3)(C3C=CC(C)O3)CC2)cc1 (stereo not shown) [Compound 175, N-(4-((4-(5-methyl-2,5-dihydrofuran-2-yl)-4-phenethylpiperidin-1-yl)methyl)phenyl)acetamide] | < 10 mg/kg |
| CCOCC1(CCc2ccccc2)CCN(Cc2cccc(NC(C)=O)c2)CC1 [Compound 176, N-(3-((4-(ethoxymethyl)-4-phenethylpiperidin-1-yl)methyl)phenyl)acetamide] | > 10 mg/kg |
| CCOCC1(CCc2cccs2)CCN(Cc2ccc(NC(C)=O)cc2)C1 (stereo not shown) [Compound 177, N-(4-((3-(ethoxymethyl)-3-(2-(thiophen-2-yl)ethyl)pyrrolidin-1-yl)methyl)phenyl)acetamide] | < 10 mg/kg |
| CCOCC1(CCc2ccsc2)CCN(Cc2ccc(NC(C)=O)cc2)C1 (stereo not shown) [Compound 178, N-(4-((3-(ethoxymethyl)-3-(2-(thiophen-3-yl)ethyl)pyrrolidin-1-yl)methyl)phenyl)acetamide] | < 10 mg/kg |
| CC(=O)Nc1ccc(CN2CCC(CCc3ccccc3)(C3C=CCO3)C2)cc1 (stereo not shown) [Compound 179, N-(4-((3-(2,5-dihydrofuran-2-yl)-3-phenethylpyrrolidin-1-yl)methyl)phenyl)acetamide] | < 10 mg/kg |
| CC(=O)Nc1ccc(CN2CCC(CCc3ccccc3)(C3CCCO3)C2)cc1 (stereo not shown) [Compound 180, N-(4-((3-phenethyl-3-(tetrahydrofuran-2-yl)pyrrolidin-1-yl)methyl)phenyl)acetamide] | > 10 mg/kg |
| CCOCC1(CCc2ccccc2)CCN(Cc2ccc(CC(=O)OC)cc2)CC1 [Compound 181, methyl 2-(4-((4-(ethoxymethyl)-4-phenethylpiperidin-1-yl)methyl)phenyl)acetate] | > 10 mg/kg |
| CC(=O)Nc1ccc(CN2CCC(CCc3cccs3)(C3C=CCO3)CC2)cc1 (stereo not shown) [Compound 182, N-(4-((4-(2,5-dihydrofuran-2-yl)-4-(2-(thiophen-2-yl)ethyl)piperidin-1-yl)methyl)phenyl)acetamide] | > 10 mg/kg |
| CC(=O)Nc1ccc(CN2CCC(CCc3cccs3)(c3ccccn3)CC2)cc1 [Compound 183, N-(4-((4-(pyridin-2-yl)-4-(2-(thiophen-2-yl)ethyl)piperidin-1-yl)methyl)phenyl)acetamide] | > 10 mg/kg |
| CC(=O)Nc1ccc(CN2CCC(CCc3ccsc3)(c3ccccn3)CC2)cc1 [Compound 184, N-(4-((4-(pyridin-2-yl)-4-(2-(thiophen-3-yl)ethyl)piperidin-1-yl)methyl)phenyl)acetamide] | > 10 mg/kg |
| CC(=O)Nc1ccc(CN2CCC(CCc3ccsc3)(C3CCO3)CC2)cc1 (stereo not shown) [Compound 185, N-(4-((4-(oxetan-2-yl)-4-(2-(thiophen-3-yl)ethyl)piperidin-1-yl)methyl)phenyl)acetamide] | < 10 mg/kg |
| CC(=O)Nc1ccc(CN2CCC(CCc3ccsc3)(C3CCCO3)CC2)cc1 (stereo not shown) [Compound 186, N-(4-((4-(tetrahydrofuran-2-yl)-4-(2-(thiophen-3-yl)ethyl)piperidin-1-yl)methyl)phenyl)acetamide] | > 10 mg/kg |
| CCOCC1(CCc2ccccc2)CCN(Cc2ccc(-c3nnc(N)o3)cc2)CC1 [Compound 187, 5-(4-((4-(ethoxymethyl)-4-phenethylpiperidin-1-yl)methyl)phenyl)-1,3,4-oxadiazol-2-amine] | > 10 mg/kg |
| CCOCC1(CCc2ccccc2)CCN(Cc2ccc(-c3nnc(OCC)[nH]3)cc2)CC1 [Compound 188, 1-(4-(5-ethoxy-4H-1,2,4-triazol-3-yl)benzyl)-4-(ethoxymethyl)-4-phenethylpiperidine] | > 10 mg/kg |
| CC(=O)Nc1ccc(CN2CCC(CCc3ccccc3)(c3ccco3)C2)cc1 (stereo not shown) [Compound 189, N-(4-((3-(furan-2-yl)-3-phenethylpyrrolidin-1-yl)methyl)phenyl)acetamide] | > 10 mg/kg |
| CC(=O)Nc1ccc(CN2CCC(CCc3ccsc3)(c3ccccn3)C2)cc1 (stereo not shown) [Compound 190, N-(4-((3-(pyridin-2-yl)-3-(2-(thiophen-3-yl)ethyl)pyrrolidin-1-yl)methyl)phenyl)acetamide] | > 10 mg/kg |
| CC(=O)Nc1ccc(CN2CCC(CCc3ccsc3)(C3CCO3)C2)cc1 (stereo not shown) [Compound 191] | < 10 mg/kg |

From patent US11584765B2 (priority 2017, dated 2023)
